Test results taken from patent EP0247482A2, “Hardened reagent coatings, and processes for the preparation thereof” (priority 1986, dated 1987).

test system: casein; conditions: pH 7
Experimental: A 10 % strength casein solution is prepared in water by adding sodium hydroxide solution. 0.1 g of tartrazine is added to 100 ml of solution as filter dyestuff. Before pouring, various samples of the solution of 3 % by weight of each of the compounds 22, 19, 20, 21, 24, 25, 30, 31, 37, 41, 44, 45, 50, 52, 53, 55 and 56, dissolved in water, are added at a pH of 7.

Compound	hardened filter foils, solubility in alkaline water after drying
NC(=O)c1ccc[n+](C(=O)N2CCOCC2)c1 [Compound 19]	no longer dissolve in alkaline water
O=C(N1CCOCC1)[n+]1cccc(S(=O)(=O)[O-])c1 [Compound 45]	no longer dissolve in alkaline water
CCN(CC)C(=O)[n+]1ccc(CCS(=O)(=O)[O-])cc1 [Compound 50]	no longer dissolve in alkaline water
Cc1ccc(N(C)C(=O)[n+]2ccc(CCS(=O)(=O)[O-])cc2)cc1 [Compound 52]	no longer dissolve in alkaline water
O=C(N1CCCCC1)[n+]1ccc(CCS(=O)(=O)[O-])cc1 [Compound 53]	no longer dissolve in alkaline water
O=C(N1CCOCC1)[n+]1ccc(CCS(=O)(=O)[O-])cc1 [Compound 55]	no longer dissolve in alkaline water
O=C(N1CCOCC1)[n+]1cccc(CCS(=O)(=O)[O-])c1 [Compound 56]	no longer dissolve in alkaline water
